The source of these data is ChEMBL document CHEMBL1201862, “PubChem BioAssay data set” (2004).

Assay [1] deals with Streptococcus sp. 'group A'. As to the kind of experiment: growth inhibition of control SK(-) GAS strain, dose response, counter-screen for streptokinase expression inhibitor project, luminescence, kanamycin, BacTiterGlo, confirmation (AID 1900). Type of assay: functional, organism-based. For orientation: Counterscreens check selectivity or assay interference.
In a further assay the target is T1, Streptokinase A (Streptococcus pyogenes serotype M1, UniProt P10520).
T1 sequence (P10520 whole entry): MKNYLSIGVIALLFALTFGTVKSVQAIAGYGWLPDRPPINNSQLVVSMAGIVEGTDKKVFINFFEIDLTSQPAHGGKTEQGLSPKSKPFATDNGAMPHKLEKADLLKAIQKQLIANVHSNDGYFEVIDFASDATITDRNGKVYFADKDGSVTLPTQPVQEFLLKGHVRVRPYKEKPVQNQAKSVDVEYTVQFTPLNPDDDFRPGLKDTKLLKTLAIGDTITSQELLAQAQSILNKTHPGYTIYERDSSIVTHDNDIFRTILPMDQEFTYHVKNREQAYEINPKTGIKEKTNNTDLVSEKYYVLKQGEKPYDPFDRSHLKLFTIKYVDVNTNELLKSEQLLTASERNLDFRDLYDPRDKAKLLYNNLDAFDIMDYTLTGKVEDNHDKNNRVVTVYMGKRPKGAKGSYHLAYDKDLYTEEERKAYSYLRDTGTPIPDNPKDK
Nature of the assay: S. pyogenes streptokinase expression inhibitors, potency, dose response, plasminogen activation absorbance, OD405 (AID 1914).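 Also: secreted streptokinase activity via plasminogen activation per viability signal from cell pellet.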 Type of assay: functional, Streptococcus pyogenes M1 GAS.

Another assay concerns Streptococcus. Nature of the assay: Group A Streptococcus viability loss, dose response, counter-screen for streptokinase expression inhibitor project, luminescence, BacTiterGlo (AID 1915).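 Also: potency for reduction of bacterial viability or growth.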 Type of assay: functional, organism-based.
Assay [2] is described as follows: Luminescence Cell-Based Dose Retest to Confirm Inhibitors of Cancer Stem Cells. [Related pubchem assays (depositor defined):AID2717, AID2721]. Type of assay: functional. Particulars: Homo sapiens.
Assay [3] addresses Luciferin 4-monooxygenase (Photinus pyralis, UniProt P08659). As to the kind of experiment: firefly luciferase enzyme inhibitors, dose response, biochemical, luminescence (AID 1891).
Assay [4] is described as follows: Luminescence Cell-Based Dose Confirmation HTS to Identify Inhibitors of Platelet Dense Granule Release. [Related pubchem assays: 1663 (Primary HTS), 1678 (Summary of Project)]. It is filed as functional.
The nature of assay [5]: Luminescence Cell-Based Dose Confirmation HTS to Identify Activators of 5'UTR Stem-Loop Driven Alpha-Synuclein mRNA Translation in H4 Neuroglioblastoma Cells. [Related pubchem assays: 1829 (Project Summary), 1814 (Primary HTS)]. Type of assay: functional.
The nature of assay [6]: Luminescence Cell-Based Dose Response HTS to Identify Activators of Luciferase Translation or Activity in H4 […] Cells. [Related pubchem assays: 1829 (Project Summary), 1814 (Primary HTS)]. It is filed as functional.
The next assay relates to H4. As to the kind of experiment: Luminescence Cell-Based Dose Response HTS to Identify Activators of 5'UTR Stem-Loop Driven Prion Protein mRNA Translation in H4 Neuroglioblastoma Cells. [Related pubchem assays: 1829 (Project Summary), 1814 (Primary HTS)]. Type of assay: functional. The settings on record: Homo sapiens.
Assay [7] concerns the target T2, Heat shock factor protein 1 (Mus musculus, UniProt P38532).
T2 sequence (P38532 whole entry): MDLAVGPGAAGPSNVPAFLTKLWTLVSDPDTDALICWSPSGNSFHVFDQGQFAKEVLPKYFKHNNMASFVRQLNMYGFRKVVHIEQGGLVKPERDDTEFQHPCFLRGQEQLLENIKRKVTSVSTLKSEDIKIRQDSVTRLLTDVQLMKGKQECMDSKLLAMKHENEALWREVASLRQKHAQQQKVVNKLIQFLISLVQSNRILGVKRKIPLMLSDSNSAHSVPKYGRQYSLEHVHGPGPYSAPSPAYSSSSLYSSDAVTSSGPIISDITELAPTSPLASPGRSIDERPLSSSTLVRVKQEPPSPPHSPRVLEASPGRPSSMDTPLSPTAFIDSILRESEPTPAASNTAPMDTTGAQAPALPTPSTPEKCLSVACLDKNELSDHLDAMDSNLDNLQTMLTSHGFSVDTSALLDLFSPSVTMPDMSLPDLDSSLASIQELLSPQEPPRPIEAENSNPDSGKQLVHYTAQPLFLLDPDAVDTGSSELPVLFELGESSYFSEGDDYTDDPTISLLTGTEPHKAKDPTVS
As to the kind of experiment: inhibition of MG132-induced HSE-luciferase signal, confirmation, cell-based, NIH3T3, luminescence, dose retest (AID 2382).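 Also: NIH3T3 fibroblasts with HSF1-driven luciferase reporter stressed by proteasome inhibitor MG132; luminescence from HSF1-driven luciferase expression after 8 hours of MG132 stress.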 It is filed as functional.

The target in assay [8] is T3, Rac GTPase-activating protein 1 (Homo sapiens, UniProt Q9H0H5).
T3 sequence (Q9H0H5 whole entry): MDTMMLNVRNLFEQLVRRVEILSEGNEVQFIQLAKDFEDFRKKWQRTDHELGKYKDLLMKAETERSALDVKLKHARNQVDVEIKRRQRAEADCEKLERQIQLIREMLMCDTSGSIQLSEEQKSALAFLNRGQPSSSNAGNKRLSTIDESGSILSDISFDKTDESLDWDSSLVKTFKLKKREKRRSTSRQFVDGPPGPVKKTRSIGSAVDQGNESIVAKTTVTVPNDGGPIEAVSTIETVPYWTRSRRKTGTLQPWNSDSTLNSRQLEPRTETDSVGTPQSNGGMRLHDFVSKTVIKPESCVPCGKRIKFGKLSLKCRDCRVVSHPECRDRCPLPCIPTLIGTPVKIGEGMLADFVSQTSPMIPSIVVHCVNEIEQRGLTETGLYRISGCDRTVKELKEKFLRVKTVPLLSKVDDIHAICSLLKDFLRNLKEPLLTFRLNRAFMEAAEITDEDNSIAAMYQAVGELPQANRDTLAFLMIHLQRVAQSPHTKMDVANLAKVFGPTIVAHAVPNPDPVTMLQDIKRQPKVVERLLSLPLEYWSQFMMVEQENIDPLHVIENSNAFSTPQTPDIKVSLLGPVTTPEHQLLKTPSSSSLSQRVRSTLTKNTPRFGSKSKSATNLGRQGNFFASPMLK
Nature of the assay: MgcRacGAP GTPase-activating activity inhibitors, confirmation, biochemical, ADP Hunter fluorescence, primary and confirmatory (AID 624330). Type of assay: functional.

The target of a further assay is Paired box protein Pax-8 (Homo sapiens, UniProt Q06710). As to the kind of experiment: inhibitors of PAX8-driven TPO luciferase reporter, dose response, RMG-I cells, cherry-pick (AID 687027).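 Also: luciferase reporter driven by Pax8 target thyroperoxidase promoter measured by SteadyGlo luminescence.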 Type of assay: functional, cell-based. (A reporter such as luciferase makes a cellular process visible.)

SMILES strings stand for the structures. The source made the active and inactive calls. Rule as the data show it, for most assays here: actives have a measured EC50 and inactives only a lower limit. Bounds are passed on as bounds.

Luciferin 4-monooxygenase, sequence (P08659 whole entry): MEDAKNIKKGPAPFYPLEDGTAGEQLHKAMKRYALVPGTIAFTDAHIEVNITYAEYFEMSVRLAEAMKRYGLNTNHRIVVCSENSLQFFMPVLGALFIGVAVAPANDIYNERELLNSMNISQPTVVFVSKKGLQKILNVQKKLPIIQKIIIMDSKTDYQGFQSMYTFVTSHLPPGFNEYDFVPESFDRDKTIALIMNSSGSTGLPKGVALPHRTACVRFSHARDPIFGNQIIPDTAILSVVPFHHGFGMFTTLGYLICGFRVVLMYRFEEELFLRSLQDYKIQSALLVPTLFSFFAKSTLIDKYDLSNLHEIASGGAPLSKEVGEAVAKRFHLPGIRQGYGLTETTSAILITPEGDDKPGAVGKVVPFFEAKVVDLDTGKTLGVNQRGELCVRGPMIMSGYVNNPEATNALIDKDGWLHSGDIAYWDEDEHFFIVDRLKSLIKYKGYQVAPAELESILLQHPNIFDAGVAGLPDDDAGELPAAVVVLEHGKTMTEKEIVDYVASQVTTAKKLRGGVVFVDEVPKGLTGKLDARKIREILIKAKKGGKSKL
Paired box protein Pax-8, sequence (Q06710 whole entry): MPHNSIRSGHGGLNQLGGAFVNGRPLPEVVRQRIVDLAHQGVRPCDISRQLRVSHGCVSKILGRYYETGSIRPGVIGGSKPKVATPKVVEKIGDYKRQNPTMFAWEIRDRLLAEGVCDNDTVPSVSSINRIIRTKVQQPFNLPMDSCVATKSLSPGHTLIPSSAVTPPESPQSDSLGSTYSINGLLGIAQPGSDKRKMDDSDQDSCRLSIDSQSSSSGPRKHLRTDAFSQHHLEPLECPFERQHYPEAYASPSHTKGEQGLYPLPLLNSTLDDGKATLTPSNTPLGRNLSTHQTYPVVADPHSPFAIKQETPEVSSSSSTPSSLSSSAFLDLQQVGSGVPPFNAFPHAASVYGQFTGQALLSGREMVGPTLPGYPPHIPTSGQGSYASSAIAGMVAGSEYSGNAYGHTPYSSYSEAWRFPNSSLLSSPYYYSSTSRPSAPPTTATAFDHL

For orientation: EC50 means the concentration at which the effect is half-maximal. The term AC50 denotes the concentration at which the activity in the assay is half-maximal. For `O=C(Nc1ccc2c(c1)CCC2)c1cc(S(=O)(=O)Nc2ccc(F)cc2)c(Cl)cc1Cl`, the EC50 was 3.5 µM (active) in [1], 3.26 µM (active) at Streptokinase A and 15.2 µM (active) in the assay with Streptococcus. Also, in [2], the AC50 was 4.35 µM (active).
As for `COc1ccc(N(C(=O)c2ccc(F)cc2)C2=CC3CCC(C2)N3C)cc1` (configuration not stated), the EC50 in [3] and in assay [4] was > 112 µM (not active) each time.
For `Cc1ccc(C)c(CSC2=NCCN2S(=O)(=O)c2ccccc2)c1`, the results for the EC50 (in assay [1]; on Streptokinase A; in the assay on Streptococcus) were 21.7 µM (active), 17.3 µM (active) and > 150 µM (not active), respectively.
`O=C1c2ccccc2S(=O)(=O)c2cc(N3CCc4ccccc4C3)ccc21`: the EC50 in assay [5] was 14 µM (active); in assay [6], 16.3 µM (active); with H4, 15.6 µM (active).
Turning to `Nc1ccc2nc(-c3ccccn3)[nH]c2c1`, the EC50 in [7] was 23.2 µM (active).
The same measure, in the same setting: the value for `Sc1nnc(-c2cnccn2)n1-c1ccccc1` was > 195 µM (not active).
For the compound `O=C(O)c1ccc(/C=N\Nc2ccccn2)cc1`, the EC50 in [3] is 3.56 µM (active); in assay [4], 2.54 µM (active).
Consider `O=C(CC1CCCCC1)NCc1ccccc1Cl`, for which the half-maximal effective concentration (EC50) was > 120 µM (not active) in assay [5], 14.1 µM (active) in assay [6] and > 120 µM (not active) in the assay on H4.
By IC50 is commonly meant the point on the concentration scale where inhibition reaches its midpoint. `CCOC(=O)C1=C(COC(=O)/C=C/c2ccc(O)c(OC)c2)NC(=O)NC1C` (configuration not stated): the IC50 in [8] was 59.4 µM (active).
Consider `CNC(=O)c1cc(S(=O)(=O)N(C)C)ccc1Cl`, for which the EC50 in assay [3] and in assay [4] was > 112 µM (not active) throughout.
As for `Cn1c(=O)c2c(SCC(=O)N3CCCc4ccccc43)nc(C3CC3)nc2n(C)c1=O`, in [7], the EC50 is on record as > 195 µM (not active).
In the case of `Cc1cc(C(=O)CSc2nc3ccccc3o2)c(C)n1C1CC1`, the EC50 in [5] was 35.7 µM (active); in [6] it was 0.905 µM (active).
Consider `Oc1ccc(-c2c(C3=CCCCC3)sc3ccccc23)cc1`, for which the EC50 in assay [1] is 2.48 µM (active); at Streptokinase A, 55.7 µM (inconclusive); in the assay with Streptococcus it was 7.29 µM (active).
As for `C[C@@H]1CCCCO[C@H](CN(C)Cc2ccc(C(F)(F)F)cc2)[C@H](C)CN([C@@H](C)CO)C(=O)c2cc(NS(=O)(=O)c3cccs3)ccc2O1`, the AC50 on Paired box protein Pax-8 was 9.41 µM (active).
For `CCOC(=O)c1[nH]c2ccc(OC)cc2c1N=C(S)N1CCN(C(=O)OCC)CC1`, the EC50 in assay [3] and in [4] was > 112 µM (not active) each time.
In the case of `COc1ccc(N2CCN(C(CNC(=O)CC(C)(C)C)c3ccc4c(c3)OCO4)CC2)cc1` (configuration not stated), the IC50 in assay [8] is 166 µM (active).
For `Nc1c(S(=O)(=O)c2cccs2)c2nc3ccccc3nc2n1/N=C/c1cccc(O)c1`, the EC50 in assay [1] was 3.26 µM (active); at Streptokinase A, > 150 µM (not active); with Streptococcus, 7.29 µM (active). For the same compound, in assay [2], the AC50 was 3.99 µM (active).
For `C/C(=N\N=C(/N)SC1CC(=O)N(c2ccc(Cl)c(Cl)c2)C1=O)c1cccs1` (configuration not stated), the values for the EC50 (in [1]; on Streptokinase A; in the assay with Streptococcus) were 2.88 µM (active), 7.44 µM (inconclusive) and 8.08 µM (active), respectively. Moreover, in [2], the AC50 is 3.86 µM (active).
For the compound `O=C(NCC(O)c1ccccc1)c1ccc(Cl)c(S(=O)(=O)N2CCCC2)c1` (configuration not stated), the results for the EC50 in [5] and in [6] were 37.8 µM (active) and 14.9 µM (active), respectively.
With `CCOC(=O)c1cnn(-c2nc3c(C)cccc3s2)c1C(F)(F)F`, the EC50 was 9.35 µM (active) in [1], 22.3 µM (active) on Streptokinase A and 16.6 µM (active) in the assay on Streptococcus.
As to `CSc1nc(N)n2nc(-c3ccccc3)cc2n1`, the EC50 in assay [3] was 3.8 µM (active); in assay [4] it was 5.68 µM (active).
On to `O=C(Nc1ccc2c(c1)OCO2)C1CC(c2c(F)cccc2Cl)=NO1` (configuration not stated), for which the EC50 was 3.83 µM (active) in assay [5], 25.6 µM (active) in assay [6] and 13.6 µM (active) in the assay with H4.
On to `CCN(CC)c1ccc(-n2cc3c(=O)n(C)c(=O)n(C)c3c2)cc1`, for which the EC50 in assay [1] was 4.91 µM (active); at Streptokinase A, > 150 µM (not active); in the assay with Streptococcus, 39.3 µM (active).
In the case of `COc1ccc(S(=O)(=O)NCC2CCCN(C(=O)C3CCCC3)C2)cc1` (configuration not stated), the EC50 in [7] is on record as > 195 µM (not active).
As to `C[n+]1ccc(C=NNc2nc(Cl)c(C#N)c(Cl)c2Cl)cc1`, the EC50 in [1] was 33 µM (active); at Streptokinase A it was > 150 µM (not active); in the assay on Streptococcus it was > 150 µM (not active).
Turning to `Nc1c(Cl)ncnc1NCCc1ccc(O)cc1`, in assay [8], the concentration for half-maximal inhibition (IC50) was 99.1 µM (active).
Turning to `CN(C(=O)CSc1nncn1C)C1CCCN(Cc2ccccc2F)C1` (configuration not stated), the EC50 in assay [3] and in assay [4] was > 112 µM (not active) each time.
For `CCOC(=O)c1sc(NC(=O)CC(C)c2ccccc2)nc1C` (configuration not stated), the EC50 in assay [3] and in assay [4] was > 112 µM (not active) throughout.
Turning to `COc1ccc(NC(=O)C2CC2)cc1-n1cnnn1`, in assay [7], the EC50 is given as > 195 µM (not active).
Still for that read-out and setting: the value for `COc1ccc(OC(C)C(=O)N2CCC(C)CC2)cc1` (configuration not stated) was > 195 µM (not active).
In the case of `CCN(CC)CCCNCC(=O)Nc1ccc2c(c1)CCC2`, in [8], the IC50 was 117 µM (active).
Consider `COc1ccc(N2CCN(C(=O)Cc3ccc(-n4c(=O)[nH]c5ccccc5c4=O)cc3)CC2)cc1`, for which the EC50 in assay [7] was > 195 µM (not active).
As to `COc1ccc(/C=N/Nc2nccnc2Cl)cc1`, the half-maximal effective concentration (EC50) was 3.76 µM (active) in [3] and 1.15 µM (active) in [4].
Turning to `Cc1cc(C)nc(NC2=NCCS2)n1`, the EC50 in assay [3] and in assay [4] was > 112 µM (not active) throughout.
Regarding `O=C(O)CC1Sc2ccccc2NC1=O` (configuration not stated), the EC50 in assay [3] and in assay [4] was > 112 µM (not active) throughout.
For `FC(F)(F)c1cc(N2CCN(Cc3ccccc3)CC2)c2ccccc2n1`, the EC50 (in assay [1]; at Streptokinase A; with Streptococcus) was > 150 µM (not active) each time.
Take `S=C(c1ccc2c(c1)OCO2)N1CCCCC1`: the EC50 in assay [3] and in assay [4] was > 112 µM (not active) in each case.
